Where a name gives a salt, the structure may show the parent alone.

The test deals with T1, human VR1 (Homo sapiens, UniProt Q8NER1).
T1 construct: expressed in transfected cells
T1 sequence (Q8NER1 whole entry): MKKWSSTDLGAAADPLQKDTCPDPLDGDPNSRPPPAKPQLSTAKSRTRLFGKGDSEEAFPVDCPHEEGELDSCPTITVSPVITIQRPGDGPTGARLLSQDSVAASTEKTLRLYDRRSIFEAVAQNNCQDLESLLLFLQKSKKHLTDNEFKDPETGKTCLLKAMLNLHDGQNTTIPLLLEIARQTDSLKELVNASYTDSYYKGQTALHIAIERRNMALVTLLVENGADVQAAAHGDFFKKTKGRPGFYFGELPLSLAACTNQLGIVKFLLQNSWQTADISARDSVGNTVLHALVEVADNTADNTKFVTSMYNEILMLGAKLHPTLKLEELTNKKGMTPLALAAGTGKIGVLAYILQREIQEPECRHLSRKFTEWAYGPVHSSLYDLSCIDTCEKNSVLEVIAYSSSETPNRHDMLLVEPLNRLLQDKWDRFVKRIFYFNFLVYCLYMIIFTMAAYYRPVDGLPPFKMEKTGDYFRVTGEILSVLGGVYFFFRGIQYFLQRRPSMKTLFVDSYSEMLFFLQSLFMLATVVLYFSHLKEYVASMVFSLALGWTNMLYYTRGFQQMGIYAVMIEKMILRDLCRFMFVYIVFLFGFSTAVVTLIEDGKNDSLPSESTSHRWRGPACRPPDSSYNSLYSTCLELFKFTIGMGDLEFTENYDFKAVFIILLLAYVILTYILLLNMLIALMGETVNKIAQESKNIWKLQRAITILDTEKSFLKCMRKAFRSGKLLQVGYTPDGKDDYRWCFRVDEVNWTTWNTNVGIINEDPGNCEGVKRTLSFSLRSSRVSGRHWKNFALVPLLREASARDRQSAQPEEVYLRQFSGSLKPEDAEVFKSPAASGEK
The experiment in a line: Human VR1 Capsaicin Antagonist Assay (45Ca2+ uptake, CHO cells stably expressing human VR1). The test is classed as cell-based. The following applies: capsaicin stimulus, Calcium-45 uptake. The method, then:
Compounds may be assayed using Chinese Hamster Ovary cell lines stably expressing either human VR1 or rat VR1 under a CMV promoter. Cells can be cultured in Growth Medium, routinely passaged at 70% confluency using trypsin and plated in the assay plate 24 hours prior to compound evaluation. Possible Growth Medium: • DMEM, high glucose (Gibco 11965-084). • 10% Dialyzed serum (Hyclone SH30079.03). • 1× Non-Essential Amino Acids (Gibco 11140-050). • 1× Glutamine-Pen-Strep (Gibco 10378-016). • Geneticin, 450 μg/mL (Gibco 10131-035). Compounds can be diluted in 100% DMSO and tested for activity over several log units of concentration [40 μM-2 pM]. Compounds may be further diluted in HBSS buffer (pH 7.4) 0.1 mg/mL BSA, prior to evaluation. Final DMSO concentration in assay would be 0.5%. Each assay plate can be controlled with a buffer only and a known antagonist compound (either capsazepine or one of the described VR1 antagonists). Activation of VR1 can be achieved in these cellular assays using either a capsaicin stimulus (ranging from 0.1-1 μM) or by an acid stimulus (addition of 30 mM Hepes/Mes buffered at pH 4.1). Compounds may also tested in an assay format to evaluate their agonist properties at VR1. • Capsaicin Antagonist Assay: Compounds may be pre-incubated with cells (expressing either human or rat VR1) for 2 minutes prior to addition of Calcium-45 and Capsaicin and then left for an additional 2 minutes prior to compound washout. Capsaicin (0.5 […]) can be added in HAM's F12, 0.1 mg/mL BSA, 15 mM Hepes at pH 7.4. Final ^45Ca (Amersham CES3-2 mCi) at 10 μCi/mL. • Acid Antagonist Assay: Compounds can be pre-incubated with cells (expressing either human or rat VR1) for 2 minutes prior to addition of Calcium-45 in 30 mM Hepes/Mes buffer (Final Assay pH 5) and then left for an additional 2 minutes prior to compound washout. Final ^45Ca (Amersham CES3-2 mCi) at 10 μCi/mL. • Agonist Assay: Compounds can be incubated with cells (expressing either human or rat VR1) for 2 minutes in the presence of Calcium-45 prior to compound washout. Final ^45Ca (Amersham CES3-2 mCi) at 10 μCi/mL. • Compound Washout and Analysis: Assay plates can be washed using an ELX405 plate washer (Bio-Tek Instruments Inc.) immediately after functional assay. One can wash 3× with PBS Mg2^+/Ca^2+ free, 0.1 mg/mL BSA, aspirating between washes. Plates may be read using a MicroBeta Jet (Wallac Inc.). Compound activity may then calculated using appropriate computational algorithms.
As to `CC(C)N1C(C)CC[C@H]1C(=O)Nc1cc(C(F)(F)F)ccc1-c1cc(Nc2cccc3c2CC(O)CC3)ncn1` (mixture of isomers) [Example 5, (2S, 5R,S, 7R,S)—N-(2-(6-(7-Hydroxy-5,6,7,8-tetrahydronaphthalen-1-ylamino)pyrimidin-4-yl)-5-(trifluoromethyl)phenyl)-1-isopropyl-5-methylpyrrolidine-2-carboxamide hydrochloride], the 50% inhibitory concentration (IC50) – broadly, the concentration at which inhibition is half-maximal – is below 0.1 µM. For the compound `CC(C)CN1C(C)CC[C@H]1C(=O)Nc1cc(C(F)(F)F)ccc1-c1cc(Nc2cccc3c2CC(O)CC3)ncn1` (mixture of isomers) [Example 6, (2S, 5R,S, 7R,S)—N-(2-(6-(7-Hydroxy-5,6,7,8-tetrahydronaphthalen-1-ylamino)pyrimidin-4-yl)-5-(trifluoromethyl)phenyl)-1-isobutyl-5-methylpyrrolidine-2-carboxamide hydrochloride], the IC50 was below 0.1 µM. Turning to `CC1CC[C@@H](C(=O)Nc2cc(C(F)(F)F)ccc2-c2cc(Nc3cccc4c3CC(O)CC4)ncn2)N1` (mixture of isomers) [Example 4, (2S, 5R,S, 7R,S)—N-(2-(6-(7-Hydroxy-5,6,7,8-tetrahydronaphthalen-1-ylamino)pyrimidin-4-yl)-5-(trifluoromethyl)phenyl)-5-methylpyrrolidine-2-carboxamide hydrochloride], the IC50 was below 0.1 µM. Regarding `CC(C)CN1CCCCC1CNc1nc(C(F)(F)F)ccc1-c1cc(Nc2cccc3c2CC(O)CC3)ncn1` (mixture of isomers) [Example 1, (2R,S)-8-(6-(2-(((2R,S)-1-Isobutylpiperidin-2-yl)methylamino)-6-(trifluoro-methyl)pyridin-3-yl)pyrimidin-4-ylamino)-1,2,3,4-tetrahydronaphthalen-2-ol hydrochloride], the IC50 was below 0.1 µM.

For `CC(C)(C)OC(=O)N1CCC[C@H]1C(=O)Nc1cc(C(F)(F)F)ccc1-c1cc(Nc2cccc3c2C[C@@H](O)CC3)ncn1` (mixture of isomers) [Example 2, (2S)-tert-Butyl 2-((2-(6-((7S)-7-hydroxy-5,6,7,8-tetrahydro-naphthalen-1-ylamino)pyrimidin-4-yl)-5-(trifluoromethyl)phenyl)-carbamoyl)-pyrrolidine-1-carboxylate and (2S)-tert-Butyl 2-((2-(6-((7S)-7-hydroxy-5,6,7,8-tetrahydro-naphthalen-1-ylamino)pyrimidin-4-yl)-5-(trifluoromethyl)phenyl)-carbamoyl)-pyrrolidine-1-carboxylate], the concentration for half-maximal inhibition (IC50) was below 0.1 µM. Take `CC(C)N1CCC[C@H]1C(=O)Nc1cc(C(F)(F)F)ccc1-c1cc(Nc2cccc3c2C[C@H](O)CC3)ncn1` (mixture of isomers) [Example 3, (2S)—N-(2-(6-(7S)-7-Hydroxy-5,6,7,8-tetrahydronaphthalen-1-ylamino)pyrimidin-4-yl)-5-(trifluoromethyl)phenyl)-1-isopropylpyrrolidine-2-carboxamide hydrochloride and (2S)—N-(2-(6-(7R)-7-Hydroxy-5,6,7,8-tetrahydro-naphthalen-1-ylamino)pyrimidin-4-yl)-5-(trifluoromethyl)phenyl)-1-isopropylpyrrolidine-2-carboxamide hydrochloride]: the IC50 is below 0.1 µM. The value for `CC(C)N1CCC[C@H]1C(=O)Nc1cc(C(F)(F)F)ccc1-c1cc(Nc2cccc3c2C[C@@H](O)CC3)ncn1` (mixture of isomers) [Example 3, (2S)—N-(2-(6-(7S)-7-Hydroxy-5,6,7,8-tetrahydronaphthalen-1-ylamino)pyrimidin-4-yl)-5-(trifluoromethyl)phenyl)-1-isopropylpyrrolidine-2-carboxamide hydrochloride and (2S)—N-(2-(6-(7R)-7-Hydroxy-5,6,7,8-tetrahydro-naphthalen-1-ylamino)pyrimidin-4-yl)-5-(trifluoromethyl)phenyl)-1-isopropylpyrrolidine-2-carboxamide hydrochloride] was below 0.1 µM.

For the origin of these results see patent publication US20060235036A1, “Vanilloid receptor ligands and their use in treatments” (priority 2005, published 2006).
